Legend:
Test in all cases: KINOMEscan competition binding
ADCK4 (human) = ADCK4 (human) (UniProt Q96D53); conditions: compound 10.0 µM
CAMK1D (human) = CAMK1D (human) (UniProt Q8IU85); conditions: compound 10.0 µM
CAMK2A (human) = CAMK2A (human) (UniProt Q9UQM7); conditions: compound 10.0 µM
CAMKK2 (human) = CAMKK2 (human) (UniProt Q96RR4); conditions: compound 10.0 µM
CDC42BPA (human) = CDC42BPA (human) (UniProt Q5VT25); conditions: compound 10.0 µM
CDC42BPG (human) = CDC42BPG (human) (UniProt Q6DT37); conditions: compound 10.0 µM
CDK16 (human) = CDK16 (human) (UniProt Q00536); conditions: compound 10.0 µM
CDK17 (human) = CDK17 (human) (UniProt Q00537); conditions: compound 10.0 µM
CDKL5 (human) = CDKL5 (human) (UniProt O76039); conditions: compound 10.0 µM
CPK1 (P.falciparum) = conditions: compound 10.0 µM
CSNK1A1 (human) = CSNK1A1 (human) (UniProt P48729); conditions: compound 10.0 µM
CSNK2A1 (human) = CSNK2A1 (human) (UniProt P68400); conditions: compound 10.0 µM
DYRK2 (human) = DYRK2 (human) (UniProt Q92630); conditions: compound 10.0 µM
EPHB6 (human) = EPHB6 (human) (UniProt O15197); conditions: compound 10.0 µM
ERBB2 (human) = ERBB2 (human) (UniProt P04626); conditions: compound 10.0 µM
FLT1 (human) = FLT1 (human) (UniProt P17948); conditions: compound 10.0 µM
[1] = system: FLT3 (human), P36888 [ITD]; conditions: compound 10.0 µM
HIPK3 (human) = HIPK3 (human) (UniProt Q9H422); conditions: compound 10.0 µM
ICK (human) = ICK (human) (UniProt Q9UPZ9); conditions: compound 10.0 µM
LATS1 (human) = LATS1 (human) (UniProt O95835); conditions: compound 10.0 µM
MAP2K6 (human) = MAP2K6 (human) (UniProt P52564); conditions: compound 10.0 µM
MAP3K10 (human) = MAP3K10 (human) (UniProt Q02779); conditions: compound 10.0 µM
MAP3K6 (human) = MAP3K6 (human) (UniProt O95382); conditions: compound 10.0 µM
MAPK3 (human) = MAPK3 (human) (UniProt P27361); conditions: compound 10.0 µM
MAST1 (human) = MAST1 (human) (UniProt Q9Y2H9); conditions: compound 10.0 µM
MET (human) = MET (human) (UniProt P08581); conditions: compound 10.0 µM
NEK11 (human) = NEK11 (human) (UniProt Q8NG66); conditions: compound 10.0 µM
NEK5 (human) = NEK5 (human) (UniProt Q6P3R8); conditions: compound 10.0 µM
NLK (human) = NLK (human) (UniProt Q9UBE8); conditions: compound 10.0 µM
PIM1 (human) = PIM1 (human) (UniProt P11309); conditions: compound 10.0 µM
PKN2 (human) = PKN2 (human) (UniProt Q16513); conditions: compound 10.0 µM
PLK2 (human) = PLK2 (human) (UniProt Q9NYY3); conditions: compound 10.0 µM
PRKAA1 (human) = PRKAA1 (human) (UniProt Q13131); conditions: compound 10.0 µM
PRKCQ (human) = PRKCQ (human) (UniProt Q04759); conditions: compound 10.0 µM
ROCK1 (human) = ROCK1 (human) (UniProt Q13464); conditions: compound 10.0 µM
RPS6KA3 KD1 (human) = RPS6KA3 KD1 (human) (UniProt P51812); conditions: compound 10.0 µM
RPS6KA5 KD2 (human) = RPS6KA5 KD2 (human) (UniProt O75582); conditions: compound 10.0 µM
RPS6KA6 KD2 (human) = RPS6KA6 KD2 (human) (UniProt Q9UK32)
RPS6KB1 (human) = RPS6KB1 (human) (UniProt P23443); conditions: compound 10.0 µM
STK32C (human) = STK32C (human) (UniProt Q86UX6); conditions: compound 10.0 µM
VRK2 (human) = VRK2 (human) (UniProt Q86Y07); conditions: compound 10.0 µM

RPS6KA6 KD2 (human), sequence (Q9UK32 whole entry, looked up): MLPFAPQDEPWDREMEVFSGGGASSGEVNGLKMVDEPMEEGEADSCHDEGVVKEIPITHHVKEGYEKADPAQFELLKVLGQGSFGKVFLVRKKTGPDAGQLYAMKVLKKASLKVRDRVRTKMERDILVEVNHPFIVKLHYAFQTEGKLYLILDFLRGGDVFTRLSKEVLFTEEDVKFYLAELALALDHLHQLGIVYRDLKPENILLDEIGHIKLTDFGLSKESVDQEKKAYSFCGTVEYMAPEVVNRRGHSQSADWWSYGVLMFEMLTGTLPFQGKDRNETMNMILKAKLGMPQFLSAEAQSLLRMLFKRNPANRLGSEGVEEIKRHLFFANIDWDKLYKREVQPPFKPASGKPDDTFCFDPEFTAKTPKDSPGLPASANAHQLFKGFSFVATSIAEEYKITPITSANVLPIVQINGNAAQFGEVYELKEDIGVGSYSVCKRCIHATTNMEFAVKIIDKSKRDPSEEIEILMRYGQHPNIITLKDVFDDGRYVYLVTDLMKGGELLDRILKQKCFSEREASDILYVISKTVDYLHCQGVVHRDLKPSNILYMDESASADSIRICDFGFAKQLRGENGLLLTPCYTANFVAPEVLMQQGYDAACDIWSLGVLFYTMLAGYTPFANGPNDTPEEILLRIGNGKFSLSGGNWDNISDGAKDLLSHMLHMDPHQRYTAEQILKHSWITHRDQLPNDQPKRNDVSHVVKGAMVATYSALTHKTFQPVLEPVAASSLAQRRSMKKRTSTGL
PRKAA1 (human), sequence (Q13131 whole entry, looked up): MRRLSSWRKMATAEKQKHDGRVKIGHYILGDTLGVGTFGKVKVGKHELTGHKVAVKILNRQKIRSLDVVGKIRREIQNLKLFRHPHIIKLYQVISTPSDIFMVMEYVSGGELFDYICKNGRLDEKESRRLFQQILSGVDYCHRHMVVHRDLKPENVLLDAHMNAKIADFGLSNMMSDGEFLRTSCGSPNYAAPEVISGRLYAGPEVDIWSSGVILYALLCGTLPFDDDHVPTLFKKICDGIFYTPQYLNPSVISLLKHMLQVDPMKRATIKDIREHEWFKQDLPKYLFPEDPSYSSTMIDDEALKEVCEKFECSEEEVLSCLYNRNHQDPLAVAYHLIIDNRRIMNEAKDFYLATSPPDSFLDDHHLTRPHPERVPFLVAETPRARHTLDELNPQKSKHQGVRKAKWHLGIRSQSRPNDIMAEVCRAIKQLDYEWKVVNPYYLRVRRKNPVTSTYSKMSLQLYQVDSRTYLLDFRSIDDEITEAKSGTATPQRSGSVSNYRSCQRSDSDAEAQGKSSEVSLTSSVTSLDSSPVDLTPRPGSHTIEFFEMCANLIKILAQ
FLT3 (human), P36888 [ITD], sequence (P36888 whole entry, looked up, change not shown): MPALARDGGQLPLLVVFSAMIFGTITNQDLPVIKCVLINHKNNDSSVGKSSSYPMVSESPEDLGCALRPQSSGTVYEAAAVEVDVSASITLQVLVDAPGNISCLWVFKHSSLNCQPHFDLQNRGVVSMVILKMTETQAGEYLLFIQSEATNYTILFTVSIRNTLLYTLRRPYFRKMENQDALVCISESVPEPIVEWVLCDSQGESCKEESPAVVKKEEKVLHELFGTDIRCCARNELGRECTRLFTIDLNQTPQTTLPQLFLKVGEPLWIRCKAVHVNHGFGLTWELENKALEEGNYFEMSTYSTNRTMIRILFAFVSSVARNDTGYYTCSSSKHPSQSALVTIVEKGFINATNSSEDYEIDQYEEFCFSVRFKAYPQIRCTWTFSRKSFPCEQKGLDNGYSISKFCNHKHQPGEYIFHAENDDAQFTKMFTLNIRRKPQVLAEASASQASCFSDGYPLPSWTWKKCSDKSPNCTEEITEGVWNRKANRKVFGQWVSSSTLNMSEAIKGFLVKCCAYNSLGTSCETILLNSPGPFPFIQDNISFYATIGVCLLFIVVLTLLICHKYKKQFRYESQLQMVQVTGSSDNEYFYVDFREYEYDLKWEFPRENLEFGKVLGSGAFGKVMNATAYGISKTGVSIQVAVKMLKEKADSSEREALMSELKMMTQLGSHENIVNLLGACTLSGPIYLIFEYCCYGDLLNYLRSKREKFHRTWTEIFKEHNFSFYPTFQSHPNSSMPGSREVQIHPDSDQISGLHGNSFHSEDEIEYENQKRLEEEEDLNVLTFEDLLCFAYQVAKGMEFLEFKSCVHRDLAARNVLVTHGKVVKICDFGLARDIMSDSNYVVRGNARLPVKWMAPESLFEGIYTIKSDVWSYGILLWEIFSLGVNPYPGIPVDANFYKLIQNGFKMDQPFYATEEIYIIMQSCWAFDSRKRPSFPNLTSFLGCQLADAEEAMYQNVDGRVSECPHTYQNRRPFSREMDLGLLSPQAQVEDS
MAP3K10 (human), sequence (Q02779 whole entry, looked up): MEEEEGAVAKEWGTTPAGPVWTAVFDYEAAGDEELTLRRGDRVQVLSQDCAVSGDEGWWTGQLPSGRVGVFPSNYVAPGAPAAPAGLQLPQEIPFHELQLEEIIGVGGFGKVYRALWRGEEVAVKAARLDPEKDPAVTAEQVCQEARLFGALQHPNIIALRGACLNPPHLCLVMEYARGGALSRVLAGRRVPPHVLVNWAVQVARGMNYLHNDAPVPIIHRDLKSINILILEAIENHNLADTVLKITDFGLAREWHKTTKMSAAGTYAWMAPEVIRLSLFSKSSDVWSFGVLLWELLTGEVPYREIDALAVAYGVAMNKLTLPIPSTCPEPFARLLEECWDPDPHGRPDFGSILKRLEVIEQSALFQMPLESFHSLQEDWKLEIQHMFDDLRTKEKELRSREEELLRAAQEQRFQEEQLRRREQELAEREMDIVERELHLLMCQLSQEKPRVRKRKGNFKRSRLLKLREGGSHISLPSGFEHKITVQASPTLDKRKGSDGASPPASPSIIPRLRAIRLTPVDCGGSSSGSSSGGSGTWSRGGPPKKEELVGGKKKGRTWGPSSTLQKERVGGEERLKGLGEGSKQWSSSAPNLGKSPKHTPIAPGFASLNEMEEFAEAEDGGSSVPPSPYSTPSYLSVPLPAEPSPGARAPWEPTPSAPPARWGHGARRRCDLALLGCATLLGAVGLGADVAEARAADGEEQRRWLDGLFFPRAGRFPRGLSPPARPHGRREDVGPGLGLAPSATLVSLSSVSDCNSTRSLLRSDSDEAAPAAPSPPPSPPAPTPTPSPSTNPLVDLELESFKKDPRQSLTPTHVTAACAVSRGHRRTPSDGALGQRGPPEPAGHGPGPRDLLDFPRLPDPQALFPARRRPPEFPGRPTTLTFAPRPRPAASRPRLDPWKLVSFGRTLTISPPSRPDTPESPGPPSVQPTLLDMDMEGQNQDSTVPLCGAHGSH
ERBB2 (human), sequence (P04626 whole entry, looked up): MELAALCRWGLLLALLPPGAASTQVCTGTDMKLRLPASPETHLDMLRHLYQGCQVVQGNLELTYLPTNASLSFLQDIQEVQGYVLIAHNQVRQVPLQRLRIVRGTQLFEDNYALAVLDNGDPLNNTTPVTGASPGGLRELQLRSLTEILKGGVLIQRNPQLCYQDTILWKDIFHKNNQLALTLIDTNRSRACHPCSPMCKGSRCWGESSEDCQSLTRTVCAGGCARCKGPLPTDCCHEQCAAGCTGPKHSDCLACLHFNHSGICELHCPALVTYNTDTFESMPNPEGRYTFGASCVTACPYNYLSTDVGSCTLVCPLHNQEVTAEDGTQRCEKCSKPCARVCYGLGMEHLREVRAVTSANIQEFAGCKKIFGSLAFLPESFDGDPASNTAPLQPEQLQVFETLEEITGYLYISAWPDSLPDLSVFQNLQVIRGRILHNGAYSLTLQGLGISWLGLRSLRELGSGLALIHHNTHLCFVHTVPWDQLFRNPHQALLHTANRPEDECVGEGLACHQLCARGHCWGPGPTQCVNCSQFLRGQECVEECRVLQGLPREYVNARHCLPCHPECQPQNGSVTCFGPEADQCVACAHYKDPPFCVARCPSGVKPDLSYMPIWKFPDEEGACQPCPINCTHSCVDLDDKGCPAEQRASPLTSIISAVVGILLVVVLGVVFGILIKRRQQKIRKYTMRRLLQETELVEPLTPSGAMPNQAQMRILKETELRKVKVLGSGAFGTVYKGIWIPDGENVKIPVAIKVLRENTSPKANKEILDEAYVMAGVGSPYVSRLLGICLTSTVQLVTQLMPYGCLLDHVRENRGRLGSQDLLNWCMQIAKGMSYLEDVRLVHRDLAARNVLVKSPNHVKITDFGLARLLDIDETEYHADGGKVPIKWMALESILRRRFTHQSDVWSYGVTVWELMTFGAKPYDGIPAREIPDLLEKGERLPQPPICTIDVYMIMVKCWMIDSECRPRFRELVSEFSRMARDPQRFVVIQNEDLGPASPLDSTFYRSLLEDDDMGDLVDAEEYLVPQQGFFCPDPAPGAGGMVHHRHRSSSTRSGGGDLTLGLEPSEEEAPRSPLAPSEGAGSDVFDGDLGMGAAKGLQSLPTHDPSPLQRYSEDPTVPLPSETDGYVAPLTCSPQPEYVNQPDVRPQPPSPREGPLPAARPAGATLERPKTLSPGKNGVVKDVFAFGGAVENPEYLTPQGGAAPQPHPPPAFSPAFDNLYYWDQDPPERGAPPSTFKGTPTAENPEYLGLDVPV
ADCK4 (human), sequence (Q96D53 whole entry, looked up): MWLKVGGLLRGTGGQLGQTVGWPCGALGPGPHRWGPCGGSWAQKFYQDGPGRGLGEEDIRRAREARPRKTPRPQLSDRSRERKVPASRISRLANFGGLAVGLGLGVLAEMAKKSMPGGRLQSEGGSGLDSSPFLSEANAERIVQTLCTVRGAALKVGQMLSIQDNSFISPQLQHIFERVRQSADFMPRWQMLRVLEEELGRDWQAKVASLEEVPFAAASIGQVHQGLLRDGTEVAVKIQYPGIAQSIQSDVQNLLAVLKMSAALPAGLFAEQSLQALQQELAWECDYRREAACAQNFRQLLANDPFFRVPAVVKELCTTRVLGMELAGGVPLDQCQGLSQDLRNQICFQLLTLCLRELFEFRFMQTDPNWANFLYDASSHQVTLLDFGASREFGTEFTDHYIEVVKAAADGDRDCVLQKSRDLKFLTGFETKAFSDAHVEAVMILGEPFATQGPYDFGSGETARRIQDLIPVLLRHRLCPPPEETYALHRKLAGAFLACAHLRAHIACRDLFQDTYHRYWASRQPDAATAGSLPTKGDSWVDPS

**Q.** How did the kinase still bound, per cent of control (ADCK4 (human)) turn out when COc1cc(C(=O)N2CCC(N3CCN(C)CC3)CC2)ccc1Nc1ncc2c(n1)N(C)c1ccccc1C(=O)N2C was run?
**A.** 94%

**Q.** What about the kinase still bound, per cent of control (CAMK1D (human)) of the same compound?
**A.** 69%

**Q.** What about the kinase still bound, per cent of control (CAMK2A (human)) of the same compound?
**A.** 21%

**Q.** What about the kinase still bound, per cent of control (CAMKK2 (human)) of the same compound?
**A.** 31%

**Q.** What about the kinase still bound, per cent of control (CDC42BPA (human)) of the same compound?
**A.** 100%

**Q.** And the kinase still bound, per cent of control (CDC42BPG (human))?
**A.** 100%

**Q.** And the residual activity (CDK16 (human))?
**A.** 96%

**Q.** And the residual activity (CDK17 (human))?
**A.** 83%

**Q.** What about the residual activity (CDKL5 (human)) of the same compound?
**A.** 100%

**Q.** What about the kinase still bound, per cent of control (CPK1 (P.falciparum)) of the same compound?
**A.** 100%

**Q.** What about the kinase still bound, per cent of control (CSNK1A1 (human)) of the same compound?
**A.** 100%

**Q.** And the kinase still bound, per cent of control (CSNK2A1 (human))?
**A.** 100%

**Q.** And the kinase still bound, per cent of control (DYRK2 (human))?
**A.** 76%

**Q.** What about the kinase still bound, per cent of control (EPHB6 (human)) of the same compound?
**A.** 31%

**Q.** What about the kinase still bound, per cent of control (ERBB2 (human)) of the same compound?
**A.** 100%

**Q.** And the kinase still bound, per cent of control (FLT1 (human))?
**A.** 100%

**Q.** And the kinase still bound, per cent of control [1]?
**A.** 100%

**Q.** What about the kinase still bound, per cent of control (HIPK3 (human)) of the same compound?
**A.** 89%

**Q.** What about the kinase still bound, per cent of control (ICK (human)) of the same compound?
**A.** 90%

**Q.** What about the kinase still bound, per cent of control (LATS1 (human)) of the same compound?
**A.** 100%

**Q.** What about the kinase still bound, per cent of control (MAP2K6 (human)) of the same compound?
**A.** 83%

**Q.** And the kinase still bound, per cent of control (MAP3K10 (human))?
**A.** 100%

**Q.** And the kinase still bound, per cent of control (MAP3K6 (human))?
**A.** 100%

**Q.** What about the kinase still bound, per cent of control (MAPK3 (human)) of the same compound?
**A.** 100%

**Q.** And the kinase still bound, per cent of control (MAST1 (human))?
**A.** 100%

**Q.** What about the kinase still bound, per cent of control (MET (human)) of the same compound?
**A.** 100%

**Q.** And the kinase still bound, per cent of control (NEK11 (human))?
**A.** 100%

**Q.** And the kinase still bound, per cent of control (NEK5 (human))?
**A.** 100%

**Q.** And the kinase still bound, per cent of control (NLK (human))?
**A.** 50%

**Q.** What about the kinase still bound, per cent of control (PIM1 (human)) of the same compound?
**A.** 100%

**Q.** And the kinase still bound, per cent of control (PKN2 (human))?
**A.** 95%

**Q.** What about the kinase still bound, per cent of control (PLK2 (human)) of the same compound?
**A.** 100%

**Q.** And the kinase still bound, per cent of control (PRKAA1 (human))?
**A.** 51%

**Q.** What about the kinase still bound, per cent of control (PRKCQ (human)) of the same compound?
**A.** 100%

**Q.** And the kinase still bound, per cent of control (ROCK1 (human))?
**A.** 100%

**Q.** And the kinase still bound, per cent of control (RPS6KA3 KD1 (human))?
**A.** 77%

**Q.** What about the kinase still bound, per cent of control (RPS6KA5 KD2 (human)) of the same compound?
**A.** 92%

**Q.** What about the Kd (RPS6KA6 KD2 (human)) of the same compound?
**A.** 620 nM

**Q.** And the kinase still bound, per cent of control (RPS6KA6 KD2 (human); compound 10.0 µM)?
**A.** 2.2%

**Q.** What about the kinase still bound, per cent of control (RPS6KB1 (human)) of the same compound?
**A.** 100%

**Q.** What about the kinase still bound, per cent of control (STK32C (human)) of the same compound?
**A.** 100%

**Q.** And the kinase still bound, per cent of control (VRK2 (human))?
**A.** 99%
